“Also recorded” adds a separate entry of the source. Read-outs that look alike come from different tables or passages of the source.

The target of data set [1] is T1, MBNL1/(CUG)4 complex (Homo sapiens, UniProt Q9NR56).
T1 construct: The MBNL1 medium construct (1-260) was purified as previously described; made in house
T1 sequence (Q9NR56 1-260): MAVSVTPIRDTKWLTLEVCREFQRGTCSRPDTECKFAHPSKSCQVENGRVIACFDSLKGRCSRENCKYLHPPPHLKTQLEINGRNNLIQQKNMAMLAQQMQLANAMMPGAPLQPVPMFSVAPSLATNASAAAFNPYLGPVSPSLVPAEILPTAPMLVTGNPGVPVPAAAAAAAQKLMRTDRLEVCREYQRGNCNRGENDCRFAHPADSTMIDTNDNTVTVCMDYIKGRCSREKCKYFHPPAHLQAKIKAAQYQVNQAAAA
Put plainly: competitive EMSA (gel shift assay), disruption of the MBNL1/(CUG)4 complex. It is filed as binding. On the technique in general: In EMSA bound probe runs differently from free probe, usually more slowly.

The test system of data set [2] is TNNT2 minigene exon 5 splicing in HeLa cells expressing 960 CUG repeats. In words: TNNT2 minigene splicing rescue in HeLa cell DM1 model. It is filed as cell-based. As to conditions: for rescue of TNNT2 exon 5 mis-splicing: propamidine up to 130 μM; for EC50: read-out: concentration needed to observe 50% rescue (EC50) of TNNT2 mis-splicing, exon 5 inclusion, 16-18 hours.

The test system of data set [3] is INSR minigene exon 11 splicing in HeLa cells expressing 960 CUG repeats. Put plainly: INSR minigene splicing rescue in HeLa cell DM1 model. As to conditions: for EC50: HeLa cell DM1 model, exon 11 inclusion, 16-18 hours, read-out: EC50 for rescue of INSR mis-splicing. It is filed as cell-based.
Data set [4] relates to Clcn1 exon 7a. In words: Clcn1 exon 7a splicing in vastus muscle of HSALR DM1 mice. Format: in vivo. The method, then: (§1) Homozygous HSALR transgenic mice in line 20b (FVB inbred background) were previously described (Mankodi et al., Science 289″1769-1773, 2000). Gender-matched mice of 10-14 weeks of age were treated with heptamidine at the indicated dose by daily intraperitoneal injection for 7 days. Control mice received 5% glucose injections. Mice were sacrificed 1 d after the final injection and vastus (quadriceps) muscle was obtained for splicing analysis. Mice in the withdrawal (WD) group were treated with 30 mg/kg heptamidine for 7 days and then left untreated for 10 days before sacrifice. […] RNA was isolated, reverse transcribed, and amplified by PCR, and analyzed on agarose gels using a fluorimager as previously described (Warf et al., Proc. Natl. Acad. Sci. USA 106:18551-18556, 2009).
The HSA^LR DM1 mouse model expresses 220 CUG repeats under the skeletal promoter (Mankodi et al., Science 289″1769-1773, 2000). […] Wild type adult mice include exon 7a of the Clcn1 pre-mRNA at a level of 4±1% while HSA^LR mice include exon 7a at steady state levels of 47±1% (FIG. 3, note that exon 7a inclusion isoforms are subject to nonsense mediated decay).

The subject of data set [5] is Atp2a1 exon 22. Put plainly: Atp2a1 exon 22 splicing in vastus muscle of HSALR DM1 mice. Format: in vivo. As to the method:
as §1
The MBNL regulated exon of Atp2a1 (exon 22) is included in the presence of MBNL proteins (positively regulated). Wild type adult mice included this exon 100±1% of the time (FIG. 4). When MBNL proteins are sequestered by the 220 CUG repeats present in HSALR mice, exon 22 inclusion drops to 23±3%. […] Additionally, after being treated with 30 mg/kg heptamidine for 7 d, mice went untreated for 10 days, and splicing of Clcn1 and Atp2a1 was examined. […] The severity of myotonia was graded by insertion of extracellular recording electrodes into muscle tissue (electromyography) under general anesthesia.

Data set [6] has as its system HSALR mice. In words: electromyography, myotonia grade in vastus muscle of HSALR mice. It is filed as in vivo. Conditions: 20 or 30 mg/kg for 7 days, controls grade 3. The method, then: as §1
Electromyography was performed under general anesthesia as described previously (Kanadia, Science 302:1978-1980, 2003). Briefly, at least 10 needle insertions were performed in vastus muscle and myotonic discharges were graded on a four point scale: 0, no myotonia; 1, occasional myotonic discharge in less than 50% of needle insertions; 2, myotonic discharge with more than 50% of insertions; and 3, myotonic discharge with nearly all insertions.

The nature of data set [7]: water solubility. Format: physicochemical.
In data set [8] the test system is HeLa cells.
The target in data set [9] is T2, MBNL1 (residues 1-260, medium construct) (UniProt Q9NR56 Q9NR56:1-260).
T2 sequence: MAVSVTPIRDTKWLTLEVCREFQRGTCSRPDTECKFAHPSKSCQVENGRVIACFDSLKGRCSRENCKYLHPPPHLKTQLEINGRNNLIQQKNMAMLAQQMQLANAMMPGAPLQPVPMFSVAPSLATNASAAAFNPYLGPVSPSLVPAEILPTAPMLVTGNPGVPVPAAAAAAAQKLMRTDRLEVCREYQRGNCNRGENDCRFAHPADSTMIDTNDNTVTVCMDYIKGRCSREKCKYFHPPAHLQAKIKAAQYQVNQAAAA
In words: EMSA; 250 nM MBNL1, 0.5 nM RNA, 175 mM NaCl, 5 mM MgCl2, 20 mM Tris pH 7.5, heparin 0.1 mg/mL, RT; complex disrupted by diamidines (pentamidine IC50 39 uM, small-molecule competition). Conditions: label: 5'-32P; hairpin with UUCG cap. As to the method:
The 5′ end labeled (CUG)₄ RNA was heated at 95° C. for 3 minutes in 250 mM NaCl, 25 mM MgCl₂, and 75 mM Tris pH 7.5 by heating at 95° C. for 3 minutes. The reaction was cooled on ice for 5 minutes, BSA and heparin were added, and the reaction cooled another 5 minutes. MBNL1 was then added to the RNA and incubated at room temperature (RT) for 10 minutes. Amidine derivative was added, followed by another 5 minute RT incubation, followed by the addition of bromophenol blue. The final reaction volume of 10 μL was incubated at RT for 25 minutes. Final reaction conditions were 0.5 nM (CUG)₄, 175 mM NaCl, 20 mM Tris pH 7.5, 5 mM MgCl₂, 2 mg/mL BSA, 0.1 mg/mL heparin, 1.25 mM β-mercaptoethanol, 1.25% (v/v) glycerol, 250 μM bromophenol blue, and 250 nM MBNL. Bromophenol blue was added at 250 μM since the activity of pentamidine is dependent upon bromophenol blue in vitro. […] IC₅₀ values were calculated as previously described (Warf et al., Proc. Natl. Acad. Sci. USA 106:18551-18556, 2009). In brief, gels were quantified using ImageQuant™ software (Molecular Dynamics/GE Healthcare, Piscataway, N.J.). The percent of RNA bound was determined by taking the ratio of the RNA:protein complex (including any well shifting) to the total RNA, per lane. IC₅₀ values were determined with KaleidaGraph (Synergy, Reading, Pa.) software using the equation: […]

Where [10] appears, read: competitive EMSA, 250 nM MBNL, 0.5 nM (CUG)4, 250 μM bromophenol blue, ± standard deviation of triplicate, read-out: IC50 of diamidine analogs.
The mark [11] stands for this setting: 30 mg/kg for 7 days, then 10 days untreated.
Setting [12] is: HSALR mice, daily intraperitoneal for 7 days.
The mark [13] stands for this setting: competitive EMSA as in Example 1, Table 2, read-out: IC50 of diamidine derivatives.

`N=C(N)c1ccc(OCCCCOc2ccc(C(=N)N)cc2)cc1` [Butamidine]: the IC50 in [1] (setting [10]) amounted to 85 ± 17 µM. In data set [2], the “rescue of TNNT2 exon 5 mis-splicing” value was “lowered exon 5 inclusion levels below that of wild type” and the EC50 was 23 ± 5 µM. For the same molecule, the EC50 in data set [3] was 34 ± 7 µM.
As to `N=C(N)c1ccc(OCCCCCCCOc2ccc(C(=N)N)cc2)cc1` [Heptamidine], the IC50 in data set [1] (setting [10]) worked out at 20 ± 2 µM. Besides, the EC50 in data set [2] (Homo sapiens) turned out to be 15 ± 6 µM; in data set [3] (Homo sapiens), 9 ± 1 µM. Also, in [4] (setting [11]), the “Clcn1 splicing after withdrawal” value was “exon inclusion levels returned to control HSALA levels; also recorded: complete return to disease state splicing levels”. Further, the “Clcn1 exon 7a inclusion” value in [4] (HSALR mice, 20 mg/kg daily intraperitoneal for 7 days, wild type 4±1%, HSALR 47±1%) was 6±1%. Further, the “rescue of Clcn1 exon 7a mis-splicing” value in data set [4] (setting [12]) is listed as “dose-dependent reduction of exon 7a inclusion; also recorded: Complete rescue”. In addition, the “Atp2a1 splicing after withdrawal” value in [5] (setting [11]) is “exon inclusion levels returned to control HSALA levels; also recorded: complete return to disease state splicing levels”. Besides, the “rescue of Atp2a1 exon 22 missplicing” value in data set [5] (HSALR mice, 30 mg/kg) is “about 50%”. The “Atp2a1 exon 22 inclusion” value in data set [5] (HSALR mice, 30 mg/kg/day for 7 days, wild type 100±1%, HSALR 23±3%) turned out to be 62±4%. For the same molecule, the “rescue of Atp2a1 exon 22 mis-splicing” value in [5] (setting [12]) is listed as “full rescue with heptamidine could not be reached; also recorded: Partial rescue of missplicing”. In addition, in data set [6], the “myotonia grade (electromyography)” value was “grade 1 (occasional myotonic discharge) or grade 0; also recorded: occasional myotonic discharges with less than 50% of insertions (grade 1) or no myotonia (grade 0)”. For the same molecule, the water solubility result in [7] is recorded as “retaining water solubility”.
Turning to `N=C(N)c1ccc(OCCCCCCOc2ccc(C(=N)N)cc2)cc1` [Hexamidine], the 50% inhibitory concentration (IC50) in data set [1] (setting [10]) is 26 ± 2 µM. Also, the EC50 amounted to 12 ± 3 µM in data set [2] (Homo sapiens) and 15 ± 1 µM in data set [3] (Homo sapiens). Moreover, the “cell toxicity” value in [8] is on record as “low toxicity”.
For the molecule `N=C(N)c1ccc(OCCCCCCCCCOc2ccc(C(=N)N)cc2)cc1` [Nonamidine], the 50% inhibitory concentration (IC50) in data set [1] (setting [10]) stood at 14 ± 1 µM. Further, the “rescue of TNNT2 exon 5 mis-splicing” value in data set [2] is “unable to rescue splicing defects before causing significant cell death”. Further, the EC50 in data set [3] was 6 ± 1 µM. For the same molecule, the “concentration that is toxic / causes significant cell death” value in [8] (HeLa cells, TNNT2 splicing assay) was 4 µM.
In the case of `N=C(N)c1ccc(OCCCCCCCCOc2ccc(C(=N)N)cc2)cc1` [Octamidine], in data set [1] (setting [10]), the half-inhibitory concentration (IC50) came to 20 ± 1 µM. Also, the “rescue of TNNT2 exon 5 mis-splicing” value in data set [2] is on record as “slight rescue of TNNT2 mis-splicing”. The EC50 in data set [3] stood at 7 ± 1 µM. Further, in data set [8], the “cell toxicity” value was “toxicity issues”.
On to `N=C(N)c1ccc(OCCCCCOc2ccc(C(=N)N)cc2)cc1` [Pentamidine, reference compound], for which, in data set [1] (setting [10]), the IC50 was found to be 39 ± 2 µM. Further, the EC50 worked out at 20 ± 4 µM in [2] (Homo sapiens) and 31 ± 2 µM in [3] (Homo sapiens). Further, in [2], the “rescue of TNNT2 exon 5 mis-splicing” value is on record as “lowered exon 5 inclusion levels below that of wild type”.
Regarding `N=C(N)c1ccc(OCCCOc2ccc(C(=N)N)cc2)cc1` [Propamidine], the IC50 in [1] (setting [10]) came to 250 ± 10 µM. The “rescue of TNNT2 exon 5 mis-splicing” value in data set [2] is recorded as “did not have the desired effect on TNNT2 mis-splicing”. In addition, in data set [3] (Homo sapiens), the EC50 was determined as 64 ± 10 µM. Besides, in data set [8] (human), the “concentration that is toxic / causes significant cell death” value is > 130 µM.
With `CC(=O)ON=C(N)c1ccc(OCCCCCCCOc2ccc(C(N)=NOC(C)=O)cc2)cc1` [acetoxy-amdine derivative of heptamidine], in [8], the “cell toxicity of prodrugs relative to parent amidine” value is on record as “less toxic than heptamidine”.
As to `CC(=O)ONC(=N)c1ccc(OCCCCCOc2ccc(C(=N)NOC(C)=O)cc2)cc1` [compound 128, 1,5-bis(4-acetoxyamidinophenoxy)pentane (diacetyldiamidoximeester)], in data set [3] (HeLa cell splicing assay, FIG. 6), the “activity of pentamidine prodrugs in the INSR splicing assay” value is reported as “showed activity in the splicing assay”. In addition, the “cell toxicity of prodrugs relative to parent amidine” value in data set [8] is “less toxic than pentamidine”.
As to `N=C(N)c1ccc(OCCCOc2ccccc2)cc1` [drawing 8 n=3], in data set [1] (setting [13]), the half-maximal inhibitory concentration (IC50) stood at 281 µM.
The same measure, in the same setting: the same measure for `N=C(N)c1ccc(OCCCCOc2ccccc2)cc1` [drawing 8 n=4]: 209 µM.
Turning to `N=C(N)c1ccc(OCCCCCOc2ccccc2)cc1` [drawing 8 n=5], the IC50 in data set [1] (setting [13]) worked out at 199 µM.
With `N=C(N)c1ccc(OCCCCCCOc2ccccc2)cc1` [drawing 8 n=6], the half-inhibitory concentration (IC50) in [1] (setting [13]) came out at 236 µM.
Same read-out and setting: the value for `N=C(N)c1ccc(OCCCCCCCOc2ccccc2)cc1` [drawing 8 n=7] was 253 µM; that for `N=C(N)c1ccc(OCCc2ccccc2)cc1` [drawing 9 n=2] was 414 µM; that for `N=C(N)c1ccc(OCCCc2ccccc2)cc1` [drawing 9 n=3] was 169 µM.
With `N=C(N)c1ccc(OCCCCc2ccccc2)cc1` [drawing 9 n=4], the IC50 in data set [1] (setting [13]) was determined as 212 µM.
With GCUGCUGUUCGCUGCUG (ssRNA) [(CUG)4 hairpin RNA], in data set [9], the binding result is given as “binds”.

Usually IC50 stands for the midpoint of a concentration-inhibition curve.

The values are drawn from US20130281462A1, “ARYL DIAMIDINES AND PRODRUGS THEREOF FOR TREATING MYOTONIC DYSTROPHY” (University of Oregon, priority 2012, published 2013).
